Results reported in patent publication US20160074462A1, “Method of Treating HCV” (priority 2014, published 2016).

Conditions: human, in vivo
Source text: Food effect on the drug exposure (e.g., AUC) of Compound 1/r, Compound 2 and Compound 3 was not known. Food effect on the drug exposure of these compounds was also not considered predictable.
The increase in exposure was similar regardless of meal type (e.g., high-fat vs. moderate-fat) or calorie content (500-600 kcal vs. 1000 kcal). Therefore, the combination of Compound 1/r, Compound 2 and Compound 3, the combination of Compound 1/r and Compound 3, as well as the combination of Compound 1/r and Compound 2, can be taken with food without regard to the specific fat or calorie content.

increase of exposure (AUC) by food	Structure (SMILES)
≤ 63%	CC(C)c1nc(CN(C)C(=O)N[C@H](C(=O)N[C@@H](Cc2ccccc2)C[C@H](O)[C@H](Cc2ccccc2)NC(=O)OCc2cncs2)C(C)C)cs1 [ritonavir, reference compound]
≤ 53%	COc1c(-c2ccc3cc(NS(C)(=O)=O)ccc3c2)cc(-n2ccc(=O)[nH]c2=O)cc1C(C)(C)C [Compound 2, N-(6-(3-tert-butyl-5-(2,4-dioxo-3,4-dihydropyrimidin-1(2H)-yl)-2-methoxyphenyl)naphthalen-2-yl)methanesulfonamide]
≤ 367%	Cc1cnc(C(=O)N[C@H]2CCCCC/C=C\[C@@H]3C[C@@]3(C(=O)NS(=O)(=O)C3CC3)NC(=O)[C@@H]3C[C@@H](Oc4nc5ccccc5c5ccccc45)CN3C2=O)cn1 [Compound 1, (2R,6S,13aS,14aR,16aS,Z)-N-(cyclopropylsulfonyl)-6-(5-methylpyrazine-2-carboxamido)-5,16-dioxo-2-(phenanthridin-6-yloxy)-1,2,3,5,6,7,8,9,10,11,13a,14,14a,15,16,16a-hexadecahydrocyclopropa[e]pyrrolo[1,2-a][1,4]diazacyclop entadecine-14a-carboxamide]
up to 127%	COC(=O)N[C@H](C(=O)N1CCCC1C(=O)Nc1ccc(C2CC[C@@H](c3ccc(NC(=O)[C@@H]4CCCN4C(=O)[C@@H](NC(=O)OC)C(C)C)cc3)N2c2ccc(C(C)(C)C)cc2)cc1)C(C)C (stereo partly shown) [Compound 3]
